# Tests used:
# Assay in all cases: viability relative to DMSO control (fraction); higher = less drug effect (more viable cells)
# Settings in all cases: 48 h
# [1] = tested on: primary AML patient cells (S085)
# Method in brief: (§1)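 The cells were primary mononuclear tumour cells, either fresh or cryopreserved, isolated by Ficoll from blood or bone marrow or derived from processed lymph node. Each well of a 384-well plate received 4 × 10^4 cells onto compounds pre-plated at five concentrations, with one well per concentration. The medium was RPMI-1640 with penicillin/streptomycin, L-glutamine and human serum, and plates stood at 37 °C and 5% CO2 for 48 h. Viability is reported as CellTiter-Glo luminescence relative to the median of 16 inner DMSO wells.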
# [2] = tested on: primary AML patient cells (S025)
# Method in brief: as §1
# [3] = tested on: primary AML patient cells (S011)
# Method in brief: as §1
# [4] = tested on: primary AML patient cells (S002)
# Method in brief: as §1
# [5] = tested on: primary DLBCL patient cells (S049)
# Method in brief: as §1
# [6] = tested on: primary CLL patient cells (S043)
# Method in brief: as §1
# [7] = tested on: primary AML patient cells (S060)
# Method in brief: as §1
# [8] = tested on: primary T-NHL patient cells (S058)
# Method in brief: as §1
# [9] = tested on: primary BL patient cells (S005)
# Method in brief: as §1
# [10] = tested on: primary DLBCL patient cells (S076)
# Method in brief: as §1
# [11] = tested on: primary ALL patient cells (S088)
# Method in brief: as §1
# [12] = tested on: primary B-PLL patient cells (S016)
# Method in brief: as §1
# [13] = tested on: primary AML patient cells (S071)
# Method in brief: as §1
# [14] = tested on: primary AML patient cells (S081)
# Method in brief: as §1
# [15] = tested on: primary AML patient cells (S019)
# Method in brief: as §1
# [16] = tested on: primary AML patient cells (S021)
# Method in brief: as §1
# [17] = tested on: primary AML patient cells (S017)
# Method in brief: as §1
smiles,measurement,setting,value
C/C=C1\NC(=O)[C@H]2CSSCC/C=C/[C@H](CC(=O)N[C@H](C(C)C)C(=O)N2)OC(=O)[C@H](C(C)C)NC1=O [Romidepsin],viability,[1]; 0.00032 µM,1.04
same,viability,[1]; 0.0016 µM,0.817
same,viability,[1]; 0.008 µM,0.103
same,viability,[1]; 0.04 µM,0.0584
same,viability,[1]; 0.2 µM,0.0681
same,viability,[2]; 0.00032 µM,0.889
same,viability,[2]; 0.0016 µM,0.812
same,viability,[2]; 0.008 µM,0.299
same,viability,[2]; 0.04 µM,0.381
same,viability,[2]; 0.2 µM,0.441
same,viability,[3]; 0.00032 µM,0.935
same,viability,[3]; 0.0016 µM,0.727
same,viability,[3]; 0.008 µM,0.507
same,viability,[3]; 0.04 µM,0.373
same,viability,[3]; 0.2 µM,0.345
same,viability,[4]; 0.00032 µM,1.12
same,viability,[4]; 0.0016 µM,0.73
same,viability,[4]; 0.008 µM,0.283
same,viability,[4]; 0.04 µM,0.265
same,viability,[4]; 0.2 µM,0.287
same,viability,[5]; 0.00032 µM,0.886
same,viability,[5]; 0.0016 µM,0.0597
same,viability,[5]; 0.008 µM,0.026
same,viability,[5]; 0.04 µM,0.0248
same,viability,[5]; 0.2 µM,0.0226
same,viability,[6]; 0.00032 µM,0.92
same,viability,[6]; 0.0016 µM,0.83
same,viability,[6]; 0.008 µM,0.369
same,viability,[6]; 0.04 µM,0.0933
same,viability,[6]; 0.2 µM,0.084
same,viability,[7]; 0.00032 µM,1.07
same,viability,[7]; 0.0016 µM,1.05
same,viability,[7]; 0.008 µM,0.464
same,viability,[7]; 0.04 µM,0.0458
same,viability,[7]; 0.2 µM,0.045
same,viability,[8]; 0.00032 µM,0.992
same,viability,[8]; 0.0016 µM,0.651
same,viability,[8]; 0.008 µM,0.365
same,viability,[8]; 0.04 µM,0.295
same,viability,[8]; 0.2 µM,0.315
same,viability,[9]; 0.00032 µM,1
same,viability,[9]; 0.0016 µM,0.948
same,viability,[9]; 0.008 µM,0.63
same,viability,[9]; 0.04 µM,0.564
same,viability,[9]; 0.2 µM,0.538
same,viability,[10]; 0.00032 µM,1.06
same,viability,[10]; 0.0016 µM,0.614
same,viability,[10]; 0.008 µM,0.264
same,viability,[10]; 0.04 µM,0.188
same,viability,[10]; 0.2 µM,0.184
same,viability,[11]; 0.00032 µM,0.851
same,viability,[11]; 0.0016 µM,0.577
same,viability,[11]; 0.008 µM,0.123
same,viability,[11]; 0.04 µM,0.0858
same,viability,[11]; 0.2 µM,0.0855
same,viability,[12]; 0.00032 µM,0.91
same,viability,[12]; 0.0016 µM,0.807
same,viability,[12]; 0.008 µM,0.0756
same,viability,[12]; 0.04 µM,0.055
same,viability,[12]; 0.2 µM,0.073
same,viability,[13]; 0.00032 µM,0.887
same,viability,[13]; 0.0016 µM,0.626
same,viability,[13]; 0.008 µM,0.209
same,viability,[13]; 0.04 µM,0.187
same,viability,[13]; 0.2 µM,0.182
same,viability,[14]; 0.00032 µM,0.976
same,viability,[14]; 0.0016 µM,0.947
same,viability,[14]; 0.008 µM,0.283
same,viability,[14]; 0.04 µM,0.0359
same,viability,[14]; 0.2 µM,0.0368
same,viability,[15]; 0.00032 µM,1
same,viability,[15]; 0.0016 µM,0.996
same,viability,[15]; 0.008 µM,0.52
same,viability,[15]; 0.04 µM,0.417
same,viability,[15]; 0.2 µM,0.434
same,viability,[16]; 0.00032 µM,0.88
same,viability,[16]; 0.0016 µM,0.789
same,viability,[16]; 0.008 µM,0.353
same,viability,[16]; 0.04 µM,0.269
same,viability,[16]; 0.2 µM,0.222
same,viability,[17]; 0.00032 µM,1.02
same,viability,[17]; 0.0016 µM,0.866
same,viability,[17]; 0.008 µM,0.29
same,viability,[17]; 0.04 µM,0.302
same,viability,[17]; 0.2 µM,0.332
CNC(=O)c1cc(Oc2ccc(NC(=O)Nc3ccc(Cl)c(C(F)(F)F)c3)cc2)ccn1 [Sorafenib],viability,[1]; 0.024 µM,1.09
same,viability,[1]; 0.12 µM,1.06
same,viability,[1]; 0.6 µM,0.916
same,viability,[1]; 3 µM,1.12
same,viability,[1]; 15 µM,1.03
same,viability,[2]; 0.024 µM,0.988
same,viability,[2]; 0.12 µM,1.02
same,viability,[2]; 0.6 µM,1.06
same,viability,[2]; 3 µM,1.13
same,viability,[2]; 15 µM,0.813
same,viability,[3]; 0.024 µM,0.966
same,viability,[3]; 0.12 µM,1.02
same,viability,[3]; 0.6 µM,0.972
same,viability,[3]; 3 µM,0.875
same,viability,[3]; 15 µM,0.715
same,viability,[4]; 0.024 µM,0.941
same,viability,[4]; 0.12 µM,1.07
same,viability,[4]; 0.6 µM,1.09
same,viability,[4]; 3 µM,1.29
same,viability,[4]; 15 µM,0.601
same,viability,[6]; 0.024 µM,0.938
same,viability,[6]; 0.12 µM,1.05
same,viability,[6]; 0.6 µM,0.94
same,viability,[6]; 3 µM,1.08
same,viability,[6]; 15 µM,0.858
same,viability,[7]; 0.024 µM,0.963
same,viability,[7]; 0.12 µM,0.951
same,viability,[7]; 0.6 µM,1.02
same,viability,[7]; 3 µM,1.02
same,viability,[7]; 15 µM,1.09
same,viability,[9]; 0.024 µM,0.839
same,viability,[9]; 0.12 µM,0.905
same,viability,[9]; 0.6 µM,0.92
same,viability,[9]; 3 µM,0.957
same,viability,[9]; 15 µM,0.885
same,viability,[11]; 0.024 µM,0.811
same,viability,[11]; 0.12 µM,0.896
same,viability,[11]; 0.6 µM,0.844
same,viability,[11]; 3 µM,0.996
same,viability,[11]; 15 µM,1.31
same,viability,[12]; 0.024 µM,0.964
same,viability,[12]; 0.12 µM,1.05
same,viability,[12]; 0.6 µM,1.01
same,viability,[12]; 3 µM,1
same,viability,[12]; 15 µM,0.978
same,viability,[13]; 0.024 µM,0.944
same,viability,[13]; 0.12 µM,1.01
same,viability,[13]; 0.6 µM,1.02
same,viability,[13]; 3 µM,1
same,viability,[13]; 15 µM,0.614
same,viability,[14]; 0.024 µM,0.918
same,viability,[14]; 0.12 µM,0.958
same,viability,[14]; 0.6 µM,1.03
same,viability,[14]; 3 µM,0.99
same,viability,[14]; 15 µM,1.06
same,viability,[15]; 0.024 µM,0.833
same,viability,[15]; 0.12 µM,1.18
same,viability,[15]; 0.6 µM,0.846
same,viability,[15]; 3 µM,1.11
same,viability,[15]; 15 µM,0.835
same,viability,[16]; 0.024 µM,0.995
same,viability,[16]; 0.12 µM,1.09
same,viability,[16]; 0.6 µM,1.07
same,viability,[16]; 3 µM,1.12
same,viability,[16]; 15 µM,0.888
same,viability,[17]; 0.024 µM,0.955
same,viability,[17]; 0.12 µM,0.988
same,viability,[17]; 0.6 µM,0.935
same,viability,[17]; 3 µM,1.04
same,viability,[17]; 15 µM,0.927
CC(C)(C)C[C@@H]1N[C@@H](C(=O)N[C@H]2CC[C@H](O)CC2)[C@H](c2cccc(Cl)c2F)[C@]12C(=O)Nc1cc(Cl)ccc12 [MI-773],viability,[1]; 0.008 µM,1.08
same,viability,[1]; 0.04 µM,0.972
same,viability,[1]; 0.2 µM,0.849
same,viability,[1]; 1 µM,0.481
same,viability,[1]; 5 µM,0.204
same,viability,[2]; 0.008 µM,1.12
same,viability,[2]; 0.04 µM,0.901
same,viability,[2]; 0.2 µM,0.818
same,viability,[2]; 1 µM,0.421
same,viability,[2]; 5 µM,0.202
same,viability,[3]; 0.008 µM,0.937
same,viability,[3]; 0.04 µM,0.938
same,viability,[3]; 0.2 µM,0.7
same,viability,[3]; 1 µM,0.465
same,viability,[3]; 5 µM,0.218
same,viability,[4]; 0.008 µM,0.994
same,viability,[4]; 0.04 µM,0.926
same,viability,[4]; 0.2 µM,0.688
same,viability,[4]; 1 µM,0.413
same,viability,[4]; 5 µM,0.253
same,viability,[6]; 0.008 µM,1.05
same,viability,[6]; 0.04 µM,0.949
same,viability,[6]; 0.2 µM,1
same,viability,[6]; 1 µM,0.879
same,viability,[6]; 5 µM,0.441
same,viability,[7]; 0.008 µM,1.06
same,viability,[7]; 0.04 µM,0.997
same,viability,[7]; 0.2 µM,1.09
same,viability,[7]; 1 µM,0.99
same,viability,[7]; 5 µM,1.09
same,viability,[9]; 0.008 µM,0.915
same,viability,[9]; 0.04 µM,0.744
same,viability,[9]; 0.2 µM,0.789
same,viability,[9]; 1 µM,0.897
same,viability,[9]; 5 µM,0.903
same,viability,[11]; 0.008 µM,1
same,viability,[11]; 0.04 µM,0.88
same,viability,[11]; 0.2 µM,0.701
same,viability,[11]; 1 µM,0.366
same,viability,[11]; 5 µM,0.151
same,viability,[12]; 0.008 µM,0.954
same,viability,[12]; 0.04 µM,0.858
same,viability,[12]; 0.2 µM,0.771
same,viability,[12]; 1 µM,0.568
same,viability,[12]; 5 µM,0.0958
same,viability,[13]; 0.008 µM,0.991
same,viability,[13]; 0.04 µM,0.732
same,viability,[13]; 0.2 µM,0.32
same,viability,[13]; 1 µM,0.132
same,viability,[13]; 5 µM,0.0874
same,viability,[14]; 0.008 µM,1
same,viability,[14]; 0.04 µM,1.05
same,viability,[14]; 0.2 µM,1.11
same,viability,[14]; 1 µM,1.02
same,viability,[14]; 5 µM,1.12
same,viability,[15]; 0.008 µM,1.34
same,viability,[15]; 0.04 µM,1.23
same,viability,[15]; 0.2 µM,1.19
same,viability,[15]; 1 µM,0.689
same,viability,[15]; 5 µM,0.343
same,viability,[16]; 0.008 µM,1
same,viability,[16]; 0.04 µM,0.966
same,viability,[16]; 0.2 µM,0.648
same,viability,[16]; 1 µM,0.46
same,viability,[16]; 5 µM,0.215
same,viability,[17]; 0.008 µM,1.06
same,viability,[17]; 0.04 µM,0.896
same,viability,[17]; 0.2 µM,0.806
same,viability,[17]; 1 µM,0.877
same,viability,[17]; 5 µM,0.834

# From the supplement of paper PMC10733146
